Source: PubChem BioAssay AID1259407 (Chemical Carcinogenesis Research Information System (CCRIS), 2018)
Entries after “also recorded” stand apart in the source; their conditions may differ. Activity calls are given as the source filed them. How the calls were made is not given here.

System: CCRIS mutagenicity, Ames/micronucleus/aberration tests
Assay: CCRIS mutagenicity studies

Measured: mutagenic call

CC/C(=C(/CC)c1ccc(O)cc1)c1ccc(O)cc1
active: End Point: IN VITRO CHROMOSOMAL ABERRATIONS, Test System: CHINESE HAMSTER CELL DON (22;XY), Metabolic Activation: NONE active; positive (ploidy changes) | End Point: IN VITRO CHROMOSOMAL ABERRATIONS, Test System: HUMAN LYMPHOCYTES, Metabolic Activation: NONE, Method: FISH active; positive (ploidy changes in chromosomes 1, 9, 16); also recorded: active; positive (ploidy changes in chromosomes 7 and 9) | End Point: IN VITRO CHROMOSOMAL ABERRATIONS, Test System: SYRIAN HAMSTER EMBRYO (SHE) CELLS, Metabolic Activation: NONE active; positive (ploidy changes) | End Point: IN VITRO MICRONUCLEUS, Test System: HUMAN PERIPHERAL LYMPHOCYTES, Metabolic Activation: NONE active; positive | End Point: IN VITRO MICRONUCLEUS, Test System: V79 CELLS, Metabolic Activation: NONE active; positive | Test System: MOUSE LYMPHOMA, Strain/Indicator: L5178Y (TK+/+)/OUABAIN, Metabolic Activation: RAT LIVER S-9, AROCLOR 1254, Method: SUSPENSION/PLATE active; positive | Test System: MOUSE LYMPHOMA, Strain/Indicator: L5178Y (TK+/-)/TRIFLUROTHYMIDINE, Metabolic Activation: RAT LIVER S-9, AROCLOR 1254, Method: SUSPENSION/PLATE active; positive | Test System: MOUSE LYMPHOMA, Strain/Indicator: L5178Y (TK+/TK-), Metabolic Activation: S-9, Method: MICROWELL active; positive
inactive: End Point: IN VITRO CHROMOSOMAL ABERRATIONS, Test System: HUMAN PERIPHERAL LYMPHOCYTES, Metabolic Activation: NONE inactive; negative | Test System: AMES SALMONELLA TYPHIMURIUM, Strain/Indicator: TA97, Metabolic Activation: HAMSTER LIVER S-9, AROCLOR 1254 (10%), Method: PREINCUBATION inactive; negative | Test System: AMES SALMONELLA TYPHIMURIUM, Strain/Indicator: TA97, Metabolic Activation: HAMSTER LIVER S-9, AROCLOR 1254 (30%), Method: PREINCUBATION inactive; negative | Test System: AMES SALMONELLA TYPHIMURIUM, Strain/Indicator: TA97, Metabolic Activation: NONE, Method: PREINCUBATION inactive; negative | Test System: AMES SALMONELLA TYPHIMURIUM, Strain/Indicator: TA97, Metabolic Activation: NONE, Method: STANDARD PLATE inactive; negative | Test System: AMES SALMONELLA TYPHIMURIUM, Strain/Indicator: TA97, Metabolic Activation: RAT LIVER S-9, AROCLOR 1254 (10%), Method: PREINCUBATION inactive; negative | Test System: AMES SALMONELLA TYPHIMURIUM, Strain/Indicator: TA97, Metabolic Activation: RAT LIVER S-9, AROCLOR 1254 (30%), Method: PREINCUBATION inactive; negative | Test System: AMES SALMONELLA TYPHIMURIUM, Strain/Indicator: TA97, Metabolic Activation: RAT, LIVER, S-9, AROCLOR 1254, Method: STANDARD PLATE inactive; negative | Test System: AMES SALMONELLA TYPHIMURIUM, Strain/Indicator: TA97, Metabolic Activation: S-9, Method: STANDARD PLATE inactive; negative | Test System: AMES SALMONELLA TYPHIMURIUM, Strain/Indicator: TA98, Metabolic Activation: HAMSTER LIVER S-9, AROCLOR 1254 (10%), Method: PREINCUBATION inactive; negative | Test System: AMES SALMONELLA TYPHIMURIUM, Strain/Indicator: TA98, Metabolic Activation: HAMSTER LIVER S-9, AROCLOR 1254 (30%), Method: PREINCUBATION inactive; negative | Test System: AMES SALMONELLA TYPHIMURIUM, Strain/Indicator: TA98, Metabolic Activation: NONE, Method: PREINCUBATION inactive; negative | Test System: AMES SALMONELLA TYPHIMURIUM, Strain/Indicator: TA98, Metabolic Activation: RAT LIVER S-9, AROCLOR 1254 (10%), Method: PREINCUBATION inactive; negative | Test System: AMES SALMONELLA TYPHIMURIUM, Strain/Indicator: TA98, Metabolic Activation: RAT LIVER S-9, AROCLOR 1254 (30%), Method: PREINCUBATION inactive; negative | Test System: AMES SALMONELLA TYPHIMURIUM, Strain/Indicator: TA98, Metabolic Activation: RAT, LIVER, S-9, AROCLOR 1254, Method: STANDARD PLATE inactive; negative | Test System: AMES SALMONELLA TYPHIMURIUM, Strain/Indicator: TA98, Metabolic Activation: RAT, LIVER, S-9, Method: STANDARD PLATE inactive; negative | Test System: AMES SALMONELLA TYPHIMURIUM, Strain/Indicator: TA98, Metabolic Activation: S-9, Method: STANDARD PLATE inactive; negative | Test System: AMES SALMONELLA TYPHIMURIUM, Strain/Indicator: TA100, Metabolic Activation: HAMSTER LIVER S-9, AROCLOR 1254 (10%), Method: PREINCUBATION inactive; negative | Test System: AMES SALMONELLA TYPHIMURIUM, Strain/Indicator: TA100, Metabolic Activation: HAMSTER LIVER S-9, AROCLOR 1254 (30%), Method: PREINCUBATION inactive; negative | Test System: AMES SALMONELLA TYPHIMURIUM, Strain/Indicator: TA100, Metabolic Activation: NONE, Method: PREINCUBATION inactive; negative | Test System: AMES SALMONELLA TYPHIMURIUM, Strain/Indicator: TA100, Metabolic Activation: RAT LIVER S-9, AROCLOR 1254 (10%), Method: PREINCUBATION inactive; negative | Test System: AMES SALMONELLA TYPHIMURIUM, Strain/Indicator: TA100, Metabolic Activation: RAT LIVER S-9, AROCLOR 1254 (30%), Method: PREINCUBATION inactive; negative | Test System: AMES SALMONELLA TYPHIMURIUM, Strain/Indicator: TA100, Metabolic Activation: RAT, LIVER, S-9, AROCLOR 1254, Method: STANDARD PLATE inactive; negative | Test System: AMES SALMONELLA TYPHIMURIUM, Strain/Indicator: TA100, Metabolic Activation: RAT, LIVER, S-9, Method: STANDARD PLATE inactive; negative; toxicity at 100 ug/plate | Test System: AMES SALMONELLA TYPHIMURIUM, Strain/Indicator: TA100, Metabolic Activation: S-9, Method: STANDARD PLATE inactive; negative | Test System: AMES SALMONELLA TYPHIMURIUM, Strain/Indicator: TA102, Metabolic Activation: NONE, Method: STANDARD PLATE inactive; negative | Test System: AMES SALMONELLA TYPHIMURIUM, Strain/Indicator: TA102, Metabolic Activation: S-9, Method: STANDARD PLATE inactive; negative | Test System: AMES SALMONELLA TYPHIMURIUM, Strain/Indicator: TA1535, Metabolic Activation: HAMSTER LIVER S-9, AROCLOR 1254 (30%), Method: PREINCUBATION inactive; negative | Test System: AMES SALMONELLA TYPHIMURIUM, Strain/Indicator: TA1535, Metabolic Activation: HAMSTER LIVER, S-9, AROCLOR 1254 (10%), Method: PREINCUBATION inactive; negative | Test System: AMES SALMONELLA TYPHIMURIUM, Strain/Indicator: TA1535, Metabolic Activation: NONE, Method: PREINCUBATION inactive; negative | Test System: AMES SALMONELLA TYPHIMURIUM, Strain/Indicator: TA1535, Metabolic Activation: RAT LIVER S-9, AROCLOR 1254 (10%), Method: PREINCUBATION inactive; negative | Test System: AMES SALMONELLA TYPHIMURIUM, Strain/Indicator: TA1535, Metabolic Activation: RAT LIVER S-9, AROCLOR 1254 (30%), Method: PREINCUBATION inactive; negative | Test System: AMES SALMONELLA TYPHIMURIUM, Strain/Indicator: TA1535, Metabolic Activation: RAT, LIVER, S-9, AROCLOR 1254, Method: STANDARD PLATE inactive; negative | Test System: AMES SALMONELLA TYPHIMURIUM, Strain/Indicator: TA1535, Metabolic Activation: RAT, LIVER, S-9, Method: STANDARD PLATE inactive; negative; toxicity at 50 and 100 ug/plate | Test System: AMES SALMONELLA TYPHIMURIUM, Strain/Indicator: TA1537, Metabolic Activation: RAT, LIVER, S-9, AROCLOR 1254, Method: STANDARD PLATE inactive; negative | Test System: AMES SALMONELLA TYPHIMURIUM, Strain/Indicator: TA1537, Metabolic Activation: RAT, LIVER, S-9, Method: STANDARD PLATE inactive; negative | Test System: AMES SALMONELLA TYPHIMURIUM, Strain/Indicator: TA1538, Metabolic Activation: NONE, Method: STANDARD PLATE inactive; negative | Test System: AMES SALMONELLA TYPHIMURIUM, Strain/Indicator: TA1538, Metabolic Activation: RAT, LIVER, S-9, AROCLOR 1254, Method: STANDARD PLATE inactive; negative | Test System: AMES SALMONELLA TYPHIMURIUM, Strain/Indicator: TA1538, Metabolic Activation: RAT, LIVER, S-9, Method: STANDARD PLATE inactive; negative | Test System: E. COLI, Strain/Indicator: WP2 UVRA, Metabolic Activation: HAMSTER, LIVER, S-9, AROCLOR 1254, Method: STANDARD PLATE inactive; negative | Test System: E. COLI, Strain/Indicator: WP2 UVRA, Metabolic Activation: HAMSTER, LIVER, S-9, Method: STANDARD PLATE inactive; negative | Test System: E. COLI, Strain/Indicator: WP2 UVRA, Metabolic Activation: MOUSE, LIVER, S-9, AROCLOR 1254, Method: STANDARD PLATE inactive; negative | Test System: E. COLI, Strain/Indicator: WP2 UVRA, Metabolic Activation: MOUSE, LIVER, S-9, Method: STANDARD PLATE inactive; negative | Test System: E. COLI, Strain/Indicator: WP2 UVRA, Metabolic Activation: NONE, Method: STANDARD PLATE inactive; negative | Test System: E. COLI, Strain/Indicator: WP2 UVRA, Metabolic Activation: RAT, LIVER, S-9, AROCLOR 1254, Method: STANDARD PLATE inactive; negative | Test System: E. COLI, Strain/Indicator: WP2 UVRA, Metabolic Activation: RAT, LIVER, S-9, Method: STANDARD PLATE inactive; negative | Test System: MOUSE LYMPHOMA, Strain/Indicator: L5178Y (TK+/+)/OUABAIN, Metabolic Activation: NONE, Method: SUSPENSION/PLATE inactive; negative | Test System: MOUSE LYMPHOMA, Strain/Indicator: L5178Y (TK+/-)/TRIFLUROTHYMIDINE, Metabolic Activation: NONE, Method: SUSPENSION/PLATE inactive; negative | Test System: MOUSE LYMPHOMA, Strain/Indicator: L5178Y (TK+/TK-), Metabolic Activation: NONE, Method: MICROWELL inactive; negative | Test System: UDS RAT HEPATOCYTES, Strain/Indicator: THY INCORP (18-20 HR), Metabolic Activation: NONE, Method: LIQUID SCINTILLATION COUNTING inactive; negative | Test System: UDS RAT HEPATOCYTES, Strain/Indicator: THY INCORP, Metabolic Activation: NONE, Method: LIQUID SCINTILLATION COUNTING inactive; negative
